Read-outs that look alike come from different tables or passages of the source.
Experiments:
[1] = n=3
[2] = Stability in rat intestinal; type: in vitro ADME; conditions: rat intestinal perfusate, similar conditions, control compound
[3] = isotonic buffer pH 1.2, 37°C, * = estimated half lives
[4] = isotonic buffer pH 4.0, 37°C, * = estimated half lives
[5] = isotonic buffer pH 6.0, 37°C, * = estimated half lives

SMILES: CC(OC(=O)c1ccccc1)OC(=O)[C@@H](N)Cc1ccccc1 (stereo partly drawn) [BA-Et-Phe, 1-((S)-2-amino-3-phenylpropanoyloxy) ethyl benzoate]
- Half lives, t1/2 [1, 3]: 1732 min
- Half lives, t1/2 [1, 4]: 3465 ^* min
- Half lives, t1/2 [1, 5]: 385 ± 19 min
- Half lives, t1/2 ([1]; isotonic buffer pH 7.4, 37°C): 24 ± 2 min

SMILES: NC(Cc1ccccc1)C(=O)OCOC(=O)c1ccccc1 (stereo not drawn) [BA-Me-Phe, (2-amino-3-phenylpropanoyloxy) methyl benzoate]
- Half lives, t1/2 [1, 3]: 193 min
- Half lives, t1/2 [1, 4]: 385 min
- Half lives, t1/2 [1, 5]: 2.1 min

SMILES: CC(OC(=O)Cc1ccccc1)OC(=O)C(N)C(C)C (stereo not drawn) [PA-Et-Val, 1-(2-phenylacetoxy) ethyl 2-amino-3-methylbutanoate]
- Half lives, t1/2 [1, 3]: 11550 ^* min
- Half lives, t1/2 [1, 4]: 23100 ^* min
- Half lives, t1/2 [1, 5]: 1732.5 min
- Half lives, t1/2 ([1]; isotonic buffer pH 7.4, 37°C): 50 ± 14.8 min

SMILES: CC(C)C[C@H](NC(=O)[C@H](Cc1ccccc1)NC(=O)CNC(=O)CNC(=O)[C@@H](N)Cc1ccc(O)cc1)C(=O)O [leu-enkephalin]
- time to complete hydrolysis [2]: ≤ 1 h

Reference: article PMC3496387 (Molecular pharmaceutics, 2009)
